According to patent publication EP0465716A1, “Optically active thiazetoquino-line-3-carboxylic acid compound, method for preparation thereof, and a pharmaceutical composition comprising the same” (priority 1990, dated 1992):
Values after ≈ are worked out from the molar mass of the structure shown. Where a name gives a salt, the structure may show the parent alone. Read-outs that look alike come from different tables or passages of the source.

Experiments:
[1] = system: Klebsiella pneumoniae PCI-602; experiment: MIC, twofold agar dilution method (standard laboratory strain); format: cell-based
Protocol: (§1) Minimum inhibitory concentrations (MIC) of test compounds were determined by the twofold agar dilution method (Chemotherapy, 29(1), 76(1981)). Overnight cultures in Mueller-Hinton broth were suspended by buffered saline gelatin. One loopful of the bacterial suspension (10⁶ or 10⁸ colony-forming units/ml) was incubated onto the plates containing test compounds. The plates were incubated for 18 hrs at 37 °C. The MIC was defined by the lowest concentration of the drug that inhibited visible growth of bacteria.

[2] = system: Male mice of ddY strain; experiment: Convulsion inducing activity in combination with fenbufen; conditions: thirty minutes after fenbufen 100 mg/kg orally
Protocol: Male mice of ddY strain, 5 weeks old, were used. Fenbufen suspended in 0.5 % carboxymethylcellulose was administered orally at a dose of 100 mg/kg. After thirty minutes, test compounds suspended in 0.5 % carboxymethylcellulose were injected intraperitoneally (i.p.) at a dose of 100 mg/kg or 300 mg/kg.

[3] = system: Enterobacter cloacae 963; experiment: MIC, twofold agar dilution method (standard laboratory strain); format: cell-based; conditions: Enterobacter cloacae 963, Gram -; 10^6 cfu/ml; 18 hrs at 37 °C
Protocol: as §1, with “Overnight” for “Minimum inhibitory concentrations (MIC) of test compounds were determined by the twofold agar dilution method (Chemotherapy, 29(1), 76(1981)). Overnight”

[4] = system: Escherichia coli NIHJ JC-2; experiment: as above; format: cell-based; conditions: NIHJJC2; Escherichia coli NIHJ JC-2, Gram -; 10^6 cfu/ml; 18 hrs at 37 °C
Protocol: as §1, with “Overnight” for “Minimum inhibitory concentrations (MIC) of test compounds were determined by the twofold agar dilution method (Chemotherapy, 29(1), 76(1981)). Overnight”

[5] = system: Pseudomonas aeruginosa IFO 3445; experiment: as above; format: cell-based; conditions: IFO3445; Pseudomonas aeruginosa IFO 3445, Gram -; 10^6 cfu/ml; 18 hrs at 37 °C
Protocol: as §1, with “Overnight” for “Minimum inhibitory concentrations (MIC) of test compounds were determined by the twofold agar dilution method (Chemotherapy, 29(1), 76(1981)). Overnight”

[6] = system: Serratia marcescens IAM 1184; experiment: as above; format: cell-based; conditions: IAM1184; Serratia marcescens IAM 1184, Gram -; 10^6 cfu/ml; 18 hrs at 37 °C
Protocol: as §1, with “Overnight” for “Minimum inhibitory concentrations (MIC) of test compounds were determined by the twofold agar dilution method (Chemotherapy, 29(1), 76(1981)). Overnight”

[7] = system: Staphylococuss aureus FDA 209PJC-1; experiment: as above; format: cell-based; conditions: Staphylococuss aureus FDA 209PJC-1, Gram +; 10^6 cfu/ml; 18 hrs at 37 °C
Protocol: as §1, with “Overnight” for “Minimum inhibitory concentrations (MIC) of test compounds were determined by the twofold agar dilution method (Chemotherapy, 29(1), 76(1981)). Overnight”

[8] = system: Acinetobacter calcoaceticus HNR 904; experiment: MIC, twofold agar dilution method (clinically isolated strain); format: cell-based; conditions: HNR904; Acinetobacter calcoaceticus HNR 904, Gram -; 10^6 cfu/ml; 18 hrs at 37 °C
Protocol: as §1, with “Overnight” for “Minimum inhibitory concentrations (MIC) of test compounds were determined by the twofold agar dilution method (Chemotherapy, 29(1), 76(1981)). Overnight”

[9] = system: Acinetobacter calcoaceticus HNR 916; experiment: as above; format: cell-based; conditions: HNR916; Acinetobacter calcoaceticus HNR 916, Gram -; 10^6 cfu/ml; 18 hrs at 37 °C
Protocol: as §1, with “Overnight” for “Minimum inhibitory concentrations (MIC) of test compounds were determined by the twofold agar dilution method (Chemotherapy, 29(1), 76(1981)). Overnight”

[10] = system: Acinetobacter calcoaceticus HNR 939; experiment: as above; format: cell-based; conditions: HNR939; Acinetobacter calcoaceticus HNR 939, Gram -; 10^6 cfu/ml; 18 hrs at 37 °C
Protocol: as §1, with “Overnight” for “Minimum inhibitory concentrations (MIC) of test compounds were determined by the twofold agar dilution method (Chemotherapy, 29(1), 76(1981)). Overnight”

[11] = system: Enterobacter cloacae HNR 1939; experiment: as above; format: cell-based; conditions: HNR1939; Enterobacter cloacae HNR 1939, Gram -; 10^6 cfu/ml; 18 hrs at 37 °C
Protocol: as §1, with “Overnight” for “Minimum inhibitory concentrations (MIC) of test compounds were determined by the twofold agar dilution method (Chemotherapy, 29(1), 76(1981)). Overnight”

[12] = system: Enterobacter cloacae HNR 1941; experiment: as above; format: cell-based; conditions: HNR1941; Enterobacter cloacae HNR 1941, Gram -; 10^6 cfu/ml; 18 hrs at 37 °C
Protocol: as §1, with “Overnight” for “Minimum inhibitory concentrations (MIC) of test compounds were determined by the twofold agar dilution method (Chemotherapy, 29(1), 76(1981)). Overnight”

[13] = system: Enterobacter cloacae HNR 1946; experiment: as above; format: cell-based; conditions: HNR1946; Enterobacter cloacae HNR 1946, Gram -; 10^6 cfu/ml; 18 hrs at 37 °C
Protocol: as §1, with “Overnight” for “Minimum inhibitory concentrations (MIC) of test compounds were determined by the twofold agar dilution method (Chemotherapy, 29(1), 76(1981)). Overnight”

[14] = system: Enterococcus faecalis HPC 948; experiment: as above; format: cell-based; conditions: HPC948; Enterococcus faecalis HPC 948, Gram +; 10^6 cfu/ml; 18 hrs at 37 °C
Protocol: as §1, with “Overnight” for “Minimum inhibitory concentrations (MIC) of test compounds were determined by the twofold agar dilution method (Chemotherapy, 29(1), 76(1981)). Overnight”

[15] = system: Enterococcus faecalis HPC 975; experiment: as above; format: cell-based; conditions: HPC975; Enterococcus faecalis HPC 975, Gram +; 10^6 cfu/ml; 18 hrs at 37 °C
Protocol: as §1, with “Overnight” for “Minimum inhibitory concentrations (MIC) of test compounds were determined by the twofold agar dilution method (Chemotherapy, 29(1), 76(1981)). Overnight”

[16] = system: Enterococcus faecalis HPC 984; experiment: as above; format: cell-based; conditions: HPC984; Enterococcus faecalis HPC 984, Gram +; 10^6 cfu/ml; 18 hrs at 37 °C
Protocol: as §1, with “Overnight” for “Minimum inhibitory concentrations (MIC) of test compounds were determined by the twofold agar dilution method (Chemotherapy, 29(1), 76(1981)). Overnight”

[17] = system: Klebsiella pneumoniae HNR 828; experiment: as above; format: cell-based; conditions: HNR828; Klebsiella pneumoniae HNR 828, Gram -; 10^6 cfu/ml; 18 hrs at 37 °C
Protocol: as §1, with “Overnight” for “Minimum inhibitory concentrations (MIC) of test compounds were determined by the twofold agar dilution method (Chemotherapy, 29(1), 76(1981)). Overnight”

[18] = system: Klebsiella pneumoniae HNR 858; experiment: as above; format: cell-based; conditions: HNR858; Klebsiella pneumoniae HNR 858, Gram -; 10^6 cfu/ml; 18 hrs at 37 °C
Protocol: as §1, with “Overnight” for “Minimum inhibitory concentrations (MIC) of test compounds were determined by the twofold agar dilution method (Chemotherapy, 29(1), 76(1981)). Overnight”

[19] = system: Klebsiella pneumoniae HNR 869; experiment: as above; format: cell-based; conditions: HNR869; Klebsiella pneumoniae HNR 869, Gram -; 10^6 cfu/ml; 18 hrs at 37 °C
Protocol: as §1, with “Overnight” for “Minimum inhibitory concentrations (MIC) of test compounds were determined by the twofold agar dilution method (Chemotherapy, 29(1), 76(1981)). Overnight”

[20] = system: Pseudomonas aeruginosa HNR 1472; experiment: as above; format: cell-based; conditions: HNR1472; Pseudomonas aeruginosa HNR 1472, Gram -; 10^6 cfu/ml; 18 hrs at 37 °C
Protocol: as §1, with “Overnight” for “Minimum inhibitory concentrations (MIC) of test compounds were determined by the twofold agar dilution method (Chemotherapy, 29(1), 76(1981)). Overnight”

[21] = system: Pseudomonas aeruginosa HNR 1489; experiment: as above; format: cell-based; conditions: HNR1489; Pseudomonas aeruginosa HNR 1489, Gram -; 10^6 cfu/ml; 18 hrs at 37 °C
Protocol: as §1, with “Overnight” for “Minimum inhibitory concentrations (MIC) of test compounds were determined by the twofold agar dilution method (Chemotherapy, 29(1), 76(1981)). Overnight”

[22] = system: Pseudomonas aeruginosa HNR 1537; experiment: as above; format: cell-based; conditions: HNR1537; Pseudomonas aeruginosa HNR 1537, Gram -; 10^6 cfu/ml; 18 hrs at 37 °C
Protocol: as §1, with “Overnight” for “Minimum inhibitory concentrations (MIC) of test compounds were determined by the twofold agar dilution method (Chemotherapy, 29(1), 76(1981)). Overnight”

[23] = system: Serratia marcescens HNR 1544; experiment: as above; format: cell-based; conditions: HNR1544; Serratia marcescens HNR 1544, Gram -; 10^6 cfu/ml; 18 hrs at 37 °C
Protocol: as §1, with “Overnight” for “Minimum inhibitory concentrations (MIC) of test compounds were determined by the twofold agar dilution method (Chemotherapy, 29(1), 76(1981)). Overnight”

[24] = system: Serratia marcescens HNR 1767; experiment: as above; format: cell-based; conditions: HNR1767; Serratia marcescens HNR 1767, Gram -; 10^6 cfu/ml; 18 hrs at 37 °C
Protocol: as §1, with “Overnight” for “Minimum inhibitory concentrations (MIC) of test compounds were determined by the twofold agar dilution method (Chemotherapy, 29(1), 76(1981)). Overnight”

[25] = system: Serratia marcescens HNR 1792; experiment: as above; format: cell-based; conditions: HNR1792; Serratia marcescens HNR 1792, Gram -; 10^6 cfu/ml; 18 hrs at 37 °C
Protocol: as §1, with “Overnight” for “Minimum inhibitory concentrations (MIC) of test compounds were determined by the twofold agar dilution method (Chemotherapy, 29(1), 76(1981)). Overnight”

[26] = system: Staphylococcuss aureus HPC 292; experiment: as above; format: cell-based; conditions: Staphylococcuss aureus HPC 292, Gram +; 10^6 cfu/ml; 18 hrs at 37 °C
Protocol: as §1, with “Overnight” for “Minimum inhibitory concentrations (MIC) of test compounds were determined by the twofold agar dilution method (Chemotherapy, 29(1), 76(1981)). Overnight”

[27] = system: Staphylococcuss aureus HPC 308; experiment: as above; format: cell-based; conditions: Staphylococcuss aureus HPC 308, Gram +; 10^6 cfu/ml; 18 hrs at 37 °C
Protocol: as §1, with “Overnight” for “Minimum inhibitory concentrations (MIC) of test compounds were determined by the twofold agar dilution method (Chemotherapy, 29(1), 76(1981)). Overnight”

[28] = system: Staphylococcuss aureus HPC 527; experiment: as above; format: cell-based; conditions: Staphylococcuss aureus HPC 527, Gram +; 10^6 cfu/ml; 18 hrs at 37 °C
Protocol: as §1, with “Overnight” for “Minimum inhibitory concentrations (MIC) of test compounds were determined by the twofold agar dilution method (Chemotherapy, 29(1), 76(1981)). Overnight”

O=C(O)c1cn(C2CC2)c2cc(N3CCNCC3)c(F)cc2c1=O [Ref. Drug A, ciprofloxacin hydrochloride]
MIC ([1]; Klebsiella pneumoniae, PCI602, 18 h): 0.012 µg/mL | Number of convulsion induced / Number of animals ([2]; 100 mg/kg (i.p.)): 4 / 6 | Number of convulsion induced / Number of animals ([2]; 300 mg/kg (i.p.)): 6 / 6

CC1Sc2c(C(=O)O)c(=O)c3cc(F)c(N4CCNCC4)c(F)c3n21 (stereo not shown) [Ref. Drug C, 6,8-difluoro-1-methyl-4-oxo-7-(1-piperazinyl)-1H,4H-[1,3]thiazeto[3,2-a]quinoline-3-carboxylic acid]
MIC [3]: 0.05 µg/mL (≈ 0.136 µM) | MIC [4]: 0.05 µg/mL (≈ 0.136 µM) | MIC [5]: 0.2 µg/mL (≈ 0.544 µM) | MIC [6]: 0.1 µg/mL (≈ 0.272 µM) | MIC [7]: 0.1 µg/mL (≈ 0.272 µM) | MIC ([1]; PCI602, Klebsiella pneumoniae PCI-602, Gram -, 10^6 cfu/ml, 18 hrs at 37 °C, read-out: MIC): 0.025 µg/mL (≈ 0.068 µM) | MIC [8]: 25 µg/mL (≈ 68 µM) | MIC [9]: 0.2 µg/mL (≈ 0.544 µM) | MIC [10]: 3.13 µg/mL (≈ 8.52 µM) | MIC [11]: 0.39 µg/mL (≈ 1.06 µM) | MIC [12]: 6.25 µg/mL (≈ 17 µM) | MIC [13]: 0.39 µg/mL (≈ 1.06 µM) | MIC [14]: 3.13 µg/mL (≈ 8.52 µM) | MIC [15]: 50 µg/mL (≈ 136 µM) | MIC [16]: 0.39 µg/mL (≈ 1.06 µM) | MIC [17]: 3.13 µg/mL (≈ 8.52 µM) | MIC [18]: 0.39 µg/mL (≈ 1.06 µM) | MIC [19]: 0.78 µg/mL (≈ 2.12 µM) | MIC [20]: 6.25 µg/mL (≈ 17 µM) | MIC [21]: 0.2 µg/mL (≈ 0.544 µM) | MIC [22]: 12.5 µg/mL (≈ 34 µM) | MIC [23]: 0.1 µg/mL (≈ 0.272 µM) | MIC [24]: 12.5 µg/mL (≈ 34 µM) | MIC [25]: 3.13 µg/mL (≈ 8.52 µM) | MIC [26]: 25 µg/mL (≈ 68 µM) | MIC [27]: 6.25 µg/mL (≈ 17 µM) | MIC [28]: 0.2 µg/mL (≈ 0.544 µM) | Number of convulsion induced / Number of animals ([2]; 100 mg/kg (i.p.)): 6 / 6
